Experiment [1] concerns the target T1, CHKA (Homo sapiens, UniProt P35790). Briefly: Competitive affinity-based chemoproteomics (UNC0965 matrix), PBMC cell extract. The class given is binding. Set-up: endogenous in cells. The note with it: 20 µM competitor. As for the experimental part:
described.[2] Lysates were precleared with bead slurry (100 μL) for 30 min at 4 °C and then treated with UNC0638 or UNC0737 (20 μM) or DMSO control for 30 min at 4 °C followed by incubation with affinity matrix for 2 h at 4 °C. Affinity matrices were washed with buffer A (5 mL) and proteins eluted with 100 μL of 2x Laemmli sample buffer, 100 mM DTT, in PBS and heating for 10 min at 90 °C.
Eluents (70 µL) were diluted in 0.1 M Tris (pH 7.8) to 200 µL, reduced with 5 mM DTT for 30 min at RT, and alkylated with 20 mM iodoacetamide for 30 min at RT in the dark. Proteins were precipitated by sequential addition of MeOH (600 µL), CHCl3 (150 µL) and H2O (450 µL), pelleted (17,000 × g, 5 min), washed with further MeOH (2 × 600 µL), and re-pelleted. Air dried pellets were resuspended in 50 μL 6 M urea (pH 7.8) by vortexing and then diluted with 250 μL H2O before adding 1 µg trypsin for overnight incubation at 37 °C. The digests were acidified with FA (1% v/v final concentration), desalted using SOLA HRP SPE Cartridges (Thermo Fisher), eluted with 69% v/v MeCN, 0.1% v/v FA in H2O (600 μL) and dried in vacuo. Dried peptides were stored at -20 °C before resuspension in 2% v/v MeCN, 0.1% v/v FA in H2O (20 μL) for LC-MS/MS analysis.
LC-MS/MS Data Acquisition
Digested samples were analysed by nano-UPLC–MS/MS using a Dionex Ultimate 3000 nano UPLC fitted with an EASY spray column (75 μm × 500 mm, 2 μm particle size, Thermo Scientific), coupled to an Orbitrap Q Exactive instrument. […]
Raw data was processed using MaxQuant[3] version 2.0.1.0 and the reference complete human proteome FASTA file (UniProt, downloaded 05.08.21). Label Free Quantification (LFQ) and Match Between Runs were selected; Cysteine carbamidomethylation was selected as a fixed modification, and methionine oxidation and asparagine deamidation as variable modifications. Default settings for identification and quantification were used. […]
mode selected for both identification and quantification of proteins (razor peptides are uniquely assigned to protein groups and not to individual proteins).
Target sequence in this assay (P35790 whole entry): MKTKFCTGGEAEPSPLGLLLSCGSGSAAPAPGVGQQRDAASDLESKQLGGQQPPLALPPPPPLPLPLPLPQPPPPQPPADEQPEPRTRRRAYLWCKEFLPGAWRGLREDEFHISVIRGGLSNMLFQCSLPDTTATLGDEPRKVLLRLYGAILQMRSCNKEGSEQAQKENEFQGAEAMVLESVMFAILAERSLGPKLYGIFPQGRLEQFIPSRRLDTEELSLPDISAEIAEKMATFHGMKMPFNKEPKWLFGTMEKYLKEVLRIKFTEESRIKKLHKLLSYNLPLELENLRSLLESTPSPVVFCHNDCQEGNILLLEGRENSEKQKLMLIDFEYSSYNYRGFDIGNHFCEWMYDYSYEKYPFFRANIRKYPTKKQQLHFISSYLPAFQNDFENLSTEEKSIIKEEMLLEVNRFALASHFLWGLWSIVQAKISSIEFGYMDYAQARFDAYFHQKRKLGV

The target in experiment [2] is T1, CHKA. The experiment in a line: Isothermal calorimetry (ITC). It counts as binding. Set-up: host or cells: E. coli BL21(DE3). As for the experimental part: mM NaCl, 5% glycerol, 500 mM imidazole, 0.5% TCEP, pH 7.5), the eluent was concentrated, and further purified by size exclusion chromatography using a HiLoad 16/600 Superdex S200 column (Cytiva) pre-equilibrated in Buffer C (20 mM HEPES, 150 mM NaCl, pH 7.5). The resulting protein purity was assessed by SDS-PAGE, and protein identity was confirmed by tryptic digest analysis. Protein concentration was determined to be 35.5 mg/mL, and was calculated using a theoretical molar extinction coefficient of 58830 M-1cm-1 as determined by ProtParam.[5]
Isothermal Calorimetry (ITC)
ITC experiments were performed in a buffer containing 20 mM HEPES pH 7.5 and 200 mM NaCl, using an VP-ITC microcalorimeter (MicroCal) at 15 °C. The protein concentration was 200 µM and compounds were tested at 20 µM. The titrations were conducted using an initial injection of 4 μL followed by further 29 injections of 8 μL each. Thermodynamic parameters were calculated using ΔG = ΔH − TΔS = −RT ln KB, where ΔG, ΔH, and ΔS are the changes in free energy, enthalpy, and entropy of binding, respectively. Single binding models were employed to fit the data. […]
Target sequence in this assay (P35790 75-457 limits assumed): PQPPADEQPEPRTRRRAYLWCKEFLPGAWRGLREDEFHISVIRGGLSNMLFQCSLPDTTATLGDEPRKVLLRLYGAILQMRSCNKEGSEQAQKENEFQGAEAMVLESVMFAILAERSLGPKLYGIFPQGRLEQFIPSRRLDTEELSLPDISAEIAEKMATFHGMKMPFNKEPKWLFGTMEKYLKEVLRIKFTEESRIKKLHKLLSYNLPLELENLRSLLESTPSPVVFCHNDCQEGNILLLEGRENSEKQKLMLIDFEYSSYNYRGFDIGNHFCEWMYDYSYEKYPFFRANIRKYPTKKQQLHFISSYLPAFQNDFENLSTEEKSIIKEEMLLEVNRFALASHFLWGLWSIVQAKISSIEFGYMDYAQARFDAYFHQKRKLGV

This note sets out measurements from PMC11811597, “Phenomics‐Based Discovery of Novel Orthosteric Choline Kinase Inhibitors” (Angewandte Chemie (International Ed. in English), 2025).

SMILES strings stand for the structures. “Also recorded” adds a separate entry of the source. Like-named read-outs stand apart in the source and are kept apart here.

In the case of `COc1cc2c(NC3CCN(C(C)C)CC3)nc(C3CCCCC3)nc2cc1OCCCN1CCCC1` [UNC0638], in experiment [1], the “competition for CHKA binding to affinity matrix” value is reported as “sole shared target”. The Kd in experiment [2] (ITC, 15 °C, recombinant human CHKA, read-out: KD) was found to be 270 nM.

For `COc1cc2c(N(C)C3CCN(C(C)C)CC3)nc(C3CCCCC3)nc2cc1OCCCN1CCCC1` [UNC0737], the “competition for CHKA binding to affinity matrix” value in experiment [1] was “sole shared target; also recorded: reduced stronger”. Moreover, the Kd in experiment [2] worked out at 59.3 nM.
